The source of these data is patent publication US20180187263A1, “KITS FOR DIAGNOSTIC DETECTION AND PREVENTION OF FEEDLOT BOVINE RESPIRATORY DISEASE” (Iowa State University Research Foundation, Inc., priority 2017, published 2018).

The target of one data set is T1, Bovine PAFR (Bos taurus, UniProt Q9TTY5).
T1 construct: expressed in transfected cells; host or cells: BHK cells, transient, lipofectamine, pcDNA3.3
Put plainly: PAF-mediated intracellular calcium accumulation in BHK cells transiently expressing bovine PAFR. The data set is classed as cell-based. The conditions noted are these: 10 nM PAF; for block of bovine PAFR (PAF-mediated intracellular calcium accumulation), FIG. 12: antihistamines 1-100 nM; for block of bovine PAFR (PAF-mediated intracellular calcium accumulation), FIG. 11: antagonist 1-100 nM, PAFR antagonists panel. On the technique in general: Calcium flux is commonly read through the fluorescence of an indicator in the cells.

Data set [1] has as its system BRD in high-risk calves. The data set can be described thus: BRD prevention in high-risk calves, weekly injections (Example 13). The data set is classed as in vivo. The conditions noted are these: weekly injections over five weeks; rupatadine 7 mg/kg subcutaneous, tripelennamine 1 mg/kg, WEB2086 10 mg/kg; five calves per group. How it is done:
Twenty-five high-risk BRD calves were transported to a new barn and five each were assigned to different treatment groups: no treatment, weekly subcutaneous injections of 7 mg/kg of rupatadine, weekly injections of 1 mg/kg tripelennamine, weekly injections of 10 mg/kg WEB2086, and weekly injections of 1 mg/kg tripelennamine and 10 mg/kg WEB2086. The animals were observed over the next five weeks twice daily for BRD. Any animal who required antibiotics for treating the clinical signs of BRD was classified as having BRD. […] Four of the five (80%, n=4 of 5) animals receiving tripelennamine only developed BRD.

Data set [2] has as its target T2, Bovine H1 histamine receptor (Bos taurus, UniProt P30546).
T2 construct: expressed in transfected cells; host or cells: BHK cells, transient, lipofectamine, pcDNA3.3
The data set can be described thus: histamine-mediated intracellular calcium accumulation in BHK cells transiently expressing bovine H1 histamine receptor. To be noted: 10 nM histamine. The format is cell-based. How it is done:
Bovine H1 histamine receptor was cloned into pcDNA3.3 expression vector and transiently expressed in BHK tissue culture cells using lipofectamine as per Carlson et al. Ten nM histamine was then added to the cells in the presence of various concentrations of rupatadine, tripelennamine, lexipafant, or WEB2086. Intracellular calcium accumulation was monitored in the transfected cells using a commercially available kit (Abcam, Cambridge, Mass.). IC50 values were then determined by identifying the concentration of the antagonist that reduced the maximal PAF-mediated intracellular calcium accumulation by 50%. […] Therefore, as showing in Examples 11 and 12, rupatadine is the only antihistamine that can also block the function of PAFR.

Data set [3] deals with BRD in high-risk calves. The data set can be described thus: BRD prevention in high-risk calves, comparison of rupatadine treatment methods (Example 14). The data set is classed as in vivo. The conditions noted are these: for calves that developed BRD: five-week observation, n=6. How it is done: In order to test various treatment methods of rupatadine, 25 high-risk calves were transported to a new farm. Seven calves were used as controls, six were given rupatadine as a single oral dose of 1 mg/kg, six were given rupatadine as a single subcutaneous injection of 7 mg/kg, six calves were given weekly subcutaneous injections of 7 mg/kg rupatadine. The animals were observed over the next five weeks twice daily for BRD. Any animal who required antibiotics for treating the clinical signs of BRD was classified as having BRD.

The next data set relates to BRD in feedlot calves. The data set can be described thus: BRD prevention at the feedlot, drug in the feed (Examples 5-7). The data set is classed as in vivo. As for the experimental part: An initial study was performed to confirm BRD prevention at the feedlot using an anti-inflammatory composition comprising rupatadine, the oral inhibitor of PAFR. A total of 18 calves were evaluated with the treatment arm receiving a dosage rate of 0.3 mg/kg. Calves were provided the drug in the feed during the first three weeks after entering the feedlot which is within the high risk 6-week period following transfer of the animal. Calves were purchased from a location in Joplin, Mo. having an overall incidence of BRD at >40% which is higher than the standard incidence of about 10% in cattle.
A further study was performed to confirm BRD prevention at the feedlot using the anti-inflammatory composition comprising rupatadine. The same methodology of Example 5 was employed with the modification of the number of calves and the dosage rate. The dosage rate was increased to 0.6 mg/kg. The number of calves were increased to 24 in total. The results are consistent to the first trial, including: 41.7% of treated calves (n=5 of 12) developed BRD whereas 100% of untreated calves (n=12 of 12) developed BRD.
A further study was performed to confirm BRD prevention at the feedlot using the anti-inflammatory composition comprising rupatadine as outlined in Example 5 with the modification of the number of calves (20 total) and the dosage rate. The dosage rate increased to 1.2 mg/kg.

In data set [4] the test system is PAFR. The data set can be described thus: weekly blood PAFR level by qRT-PCR (Example 14). The data set is classed as in vivo, calves. As for the experimental part:
Blood was extracted from all 25 calves was extracted weekly and the level of PAFR was assayed using qRT-PCR and the theoretical copies of transcript/200 ng of total RNA. […] However, it dropped the most in the weekly depot injection calves during the last three weeks of observations.

Data set [5] has as its target T3, PAFR (Bos taurus, UniProt Q9TTY5).
T3 construct: second messenger accumulation in calf blood cells that have an increase in expression of PAFR; endogenous in cells; host or cells: bovine whole blood cells (ex vivo)
Put plainly: stress hormone- and commensal oral bacteria-mediated second messenger accumulation in calf blood cells. The format is cell-based, cattle. To be noted: 500 nM inhibitor; cortisol 5 ng/mL, norepinephrine 100 pg/mL, 10^6 CFUs/mL commensal oral bacteria; six hours at 37° C. The source says:
A PAFR inhibitor blocks the stress hormone- and commensal oral bacteria-mediated second messenger accumulation in calf blood cells that have an increase in expression of PAFR. Studies presented in Example 1 and FIG. 1 were repeated with the inclusion of the compositions comprising the anti-inflammatory drug rupatadine according to the invention. Blood was drawn from 10 animals that have an increase in PAFR expression (those in which an RT-PCR amplicon was visible after 10-15 cycles) and 10 animals with “normal” or no PAFR expression (those in which an RT-PCR amplicon was visible after 30-45 cycles).
Approximately 5 mL of whole blood was collected from the jugular or caudal vein of non-transported juvenile and adult cattle. Blood was placed in EDTA tubes, aliquoted, and cortisol (5 ng/mL) and norepinephrine (100 pg/mL) were added to some of the blood. The next day, blood samples were incubated with 0 or 10^6 CFUs/mL of commensal oral bacteria, 0 or 500 nM of the inhibitor, and a second messenger reagent for six hours at 37° C. with gentle rolling. After the six-hour incubation period, blood samples were analyzed for the production of second messengers. Data was standardized based on second messenger production in the presence of vehicle. […] Fifty ng of total RNA was then subjected to semi-quantitative RT-PCR to confirm the PAFR expression status of each animal.

The nature of data set [6]: pharmacotherapeutic study, blood levels after oral administration. The data set is classed as in vivo. To be noted: daily oral doses of 30 mg/animal for 5 days; six calves; FIG. 9. How it is done: A pharmacotherapeutic study was completed to confirm the PAFRi survives the rumen and reaches therapeutic blood and lung concentrations following oral administration to feedlot calves. Six calves were purchased and given daily oral doses of 30 mg/animal of the drug rupatadine for 5 days. Blood was drawn five times on day one and twice per day thereafter to measure the blood levels of rupatadine.
In addition to the blood levels of the drug, the amount of the drug in the muscle tissue is also analyzed. Six recently weaned feedlot calves were orally dosed with […] of rupatadine once a day for five days, a dose that was determined based on allometric scaling from human data. Blood samples were taken at 0, 2, 4, 8, 12, 24, 48, 72, 96, and 120 hours after the first dose. Calves were euthanized at the 120-hour time point at which lungs samples were removed. Samples were submitted to the PhAST laboratory at Iowa State University, for LCMS-based quantitation of the drug and its primary metabolite that is pharmacologically active.

In a further data set the test system is lung pathology. The data set can be described thus: lung necropsy after five weeks of treatment (Example 13). The format is in vivo. To be noted: after five weeks of weekly 7 mg/kg subcutaneous injections; BRD(+) calves usually >25%. An excerpt: After the five weeks, the rupatadine treated animals were euthanized and the lungs removed and necropsied. Three veterinarians then assessed the lungs for signs of disease, such as abscessation or consolidation. […] Lung pathology in BRD(+) calves is usually >25%, and of the rupatadine treated animals, there was only about 5-10% disease identified by the veterinarians.

T1 sequence (Q9TTY5 whole entry): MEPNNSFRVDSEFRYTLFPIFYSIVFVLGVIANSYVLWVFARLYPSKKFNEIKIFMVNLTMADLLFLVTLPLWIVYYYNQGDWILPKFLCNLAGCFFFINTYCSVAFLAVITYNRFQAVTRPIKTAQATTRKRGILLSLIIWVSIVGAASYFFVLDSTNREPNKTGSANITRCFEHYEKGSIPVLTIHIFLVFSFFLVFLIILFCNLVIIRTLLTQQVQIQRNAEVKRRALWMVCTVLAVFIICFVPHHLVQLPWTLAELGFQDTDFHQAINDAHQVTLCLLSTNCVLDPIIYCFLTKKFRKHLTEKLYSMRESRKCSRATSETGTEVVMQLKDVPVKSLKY
T2 sequence (P30546 whole entry): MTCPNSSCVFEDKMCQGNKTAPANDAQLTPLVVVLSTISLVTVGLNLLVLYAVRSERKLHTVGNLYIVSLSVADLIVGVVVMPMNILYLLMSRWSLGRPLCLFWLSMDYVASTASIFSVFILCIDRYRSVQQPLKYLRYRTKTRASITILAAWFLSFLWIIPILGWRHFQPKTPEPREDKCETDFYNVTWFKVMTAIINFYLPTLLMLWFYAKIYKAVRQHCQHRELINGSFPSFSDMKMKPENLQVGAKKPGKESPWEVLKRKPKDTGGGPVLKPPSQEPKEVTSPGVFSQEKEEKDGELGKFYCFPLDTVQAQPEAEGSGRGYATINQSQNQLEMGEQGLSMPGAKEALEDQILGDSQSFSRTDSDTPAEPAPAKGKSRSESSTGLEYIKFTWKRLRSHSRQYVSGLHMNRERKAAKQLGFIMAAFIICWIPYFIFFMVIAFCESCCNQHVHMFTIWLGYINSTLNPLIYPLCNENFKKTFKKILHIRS
T3 sequence (Q9TTY5 whole entry): as the sequence (Q9TTY5 whole entry) above
Experimental for Bovine PAFR: Bovine PAFR was cloned into pcDNA3.3 expression vector and transiently expressed in BHK tissue culture cells using lipofectamine as per Carlson et al., J Biol Chem, 271:23146053 (1996), herein incorporated by reference in its entirety. Ten nM PAF was then added to the cells in the presence of various concentrations of various antagonists: rupatadine, lexipafant (as in Kingsnorth, et al., BJS, 82:1414-20 (1995), herein incorporated in its entirety), and WEB2086 a PAF antagonist which has not been commercialized and/or used in humans to date (as in Casals-Stenzel et al., J of Pharmacolo Experimental Therapeutics, 241:974-81 (1987), herein incorporated in its entirety), as well as tripelennamine, a bovine-approved antihistamine at concentrations ranging between 1-100 nM. Intracellular calcium accumulation was monitored in the transfected cells using a commercially available kit (Abcam, Cambridge). IC50 values were then determined by identifying the concentration of the antagonist that reduced the maximal PAF-mediated intracellular calcium accumulation by 50%.
Various antihistamines were also tested. […] Intracellular calcium accumulation was monitored in the transfected cells using a commercially available kit (Abcam, Cambridge). IC50 values were then determined by identifying the concentration of the antagonist that reduced the maximal PAF-mediated intracellular calcium accumulation by 50%.

Regarding `CN(C)CCOC(c1ccccc1)c1ccccc1` [diphenhydramine], the “block of bovine PAFR (PAF-mediated intracellular calcium accumulation), FIG. 12” value at Bovine PAFR is “do not block”.

Turning to `Cc1nnc2n1-c1sc(CCC(=O)N3CCOCC3)cc1C(c1ccccc1Cl)=NC2` [WEB2086], in the data set on BRD in high-risk calves [1], the “animals that developed BRD” value came out at 100%. Besides, the “block of H1 histamine receptor function, FIG. 13” value (“block … FIG. 13” for short) in data set [2] is listed as “fail to black”. In addition, the “block of bovine PAFR (PAF-mediated intracellular calcium accumulation), FIG. 11” value on Bovine PAFR is reported as “blocked”.

For the compound `COc1ccc(CN(CCN(C)C)c2ccccn2)cc1` [pyrilamine], the “block of bovine PAFR (PAF-mediated intracellular calcium accumulation), FIG. 12” value on Bovine PAFR is given as “do not block”.

With `Cc1cncc(CN2CCC(=C3c4ccc(Cl)cc4CCc4cccnc43)CC2)c1` [rupatadine, 8-chloro-11-[1-[(5-methyl-3-pyridyl)methyl]-4-piperidyliden]-6,11-dihydro-5H-benzo[5,6]cyclohepta[1,2-b]pyridine], in the data set on BRD in high-risk calves [1], the “animals that developed BRD” value is listed as 0%. Also, the “calves that developed BRD” value is 100% with BRD in high-risk calves [3] (single oral dose of 1 mg/kg), 83.3% with BRD in high-risk calves [3] (single subcutaneous long-acting injection of 7 mg/kg) and 16.7% in the data set with BRD in high-risk calves [3] (weekly subcutaneous injections of 7 mg/kg). Moreover, the “day on which BRD developed” value in the data set with BRD in high-risk calves [3] (weekly subcutaneous injections of 7 mg/kg, the one calf that developed BRD) came out at 31 days. For the same compound, the “treated calves that developed BRD” value in the data set on BRD in feedlot calves (0.3 mg/kg in the feed during first three weeks after entering feedlot, 8 treated calves, within 5 weeks) stood at 50%. The “reduction in BRD” value in the data set with BRD in feedlot calves (0.3 mg/kg in the feed, versus calves that received no drug) amounted to 50%. Further, in the data set with PAFR [4] (weekly depot injection 7 mg/kg versus control and other rupatadine treatments, FIG. 21), the “decrease in PAFR expression over five weeks” value is recorded as “greatest decrease”. For the same compound, in the data set with PAFR [4] (weekly injections 7 mg/kg, 35 days), the “PAFR expression at 35 days” value is on record as “below ‘normal’ expression”. In addition, the “block … FIG. 13” value in data set [2] is “block”. For the same compound, at PAFR [5], the “second messenger accumulation in samples with increased PAFR expression” value was “indistinct from normal or non-expressing samples”. In addition, in [6], the “blood levels: time to reach therapeutic concentrations” value is “reaches therapeutic concentrations more rapidly than in humans”. Further, the “lung disease identified by the veterinarians” value in the data set on lung pathology was 5-10%. Besides, the “block of bovine PAFR (PAF-mediated intracellular calcium accumulation), FIG. 11” value at Bovine PAFR is on record as “blocked”. Besides, on Bovine PAFR, the “block of bovine PAFR (PAF-mediated intracellular calcium accumulation), FIG. 12” value is “blocks”.

For `CCOC(=O)[C@H](CC(C)C)N(C)S(=O)(=O)c1ccc(Cn2c(C)nc3cnccc32)cc1` [lexipafant], the “block … FIG. 13” value in data set [2] is “fail to black”. For the same compound, the “block of bovine PAFR (PAF-mediated intracellular calcium accumulation), FIG. 11” value at Bovine PAFR was “blocked”.

As for `CC(CN1c2ccccc2Sc2ccccc21)N(C)C` (stereo not shown) [promethazine], the “block of bovine PAFR (PAF-mediated intracellular calcium accumulation), FIG. 12” value at Bovine PAFR is “do not block”.

Take `OCCOCCN1CCN(C(c2ccccc2)c2ccc(Cl)cc2)CC1` (stereo not shown) [hydroxyazine, hydroxyzine]: on Bovine PAFR, the “block of bovine PAFR (PAF-mediated intracellular calcium accumulation), FIG. 12” value is “do not block”.

Turning to `CN(C)CCN(Cc1ccccc1)c1ccccn1` [tripelennamine], the “animals that developed BRD” value with BRD in high-risk calves [1] is 80%. In addition, the “block … FIG. 13” value in data set [2] was “block”. In addition, on Bovine PAFR, the “block of bovine PAFR (PAF-mediated intracellular calcium accumulation), FIG. 11” value is listed as “not blocked” and the “block of bovine PAFR (PAF-mediated intracellular calcium accumulation), FIG. 12” value was “do not block”.
